Experimental data published in the supplement of paper PMC10307832.

Key:
Assay in all cases: relative viability (nuclei count vs DMSO), 5 days (fraction); higher = more cells survive
[1] = compound: C[C@@]1(C(=O)Nc2ccc(F)nc2)CCCN1c1nc(Nc2cc(C3CC3)n[nH]2)c2cccn2n1 + N=C(N)NC(=N)NCCc1ccccc1 [Phenformin] (partner 250 µM)
Outline: (§1)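 Relative viability divides the nuclei count in treated wells by that in vehicle wells. Lung cancer cell lines were seeded in 1536-well plates, dosed by pin tool the next day, and fixed and stained after 5 days in one step with final 0.05% Triton X-100, 1% formaldehyde and 1 ug/ml Hoechst. Dosing was a single drug or a fixed anchor-drug dose plus five library-drug doses (not always all listed) in √10 steps, and values are medians of duplicate plates imaged at 4×.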

[2] = compound: C[C@@]1(C(=O)Nc2ccc(F)nc2)CCCN1c1nc(Nc2cc(C3CC3)n[nH]2)c2cccn2n1 + Cc1cc(Nc2cc(N3CCN(C)CC3)nc(Sc3ccc(NC(=O)C4CC4)cc3)n2)n[nH]1 [Tozasertib] (partner 0.1 µM)
Outline: as §1

[3] = compound: C[C@@]1(C(=O)Nc2ccc(F)nc2)CCCN1c1nc(Nc2cc(C3CC3)n[nH]2)c2cccn2n1 + Nc1ncn([C@H]2C[C@H](O)[C@@H](CO)O2)c(=O)n1 [Decitabine] (partner 2 µM)
Outline: as §1

Motesanib + Navitoclax = compound: CC1(C)CNc2cc(NC(=O)c3cccnc3NCc3ccncc3)ccc21 [Motesanib] + CC1(C)CCC(c2ccc(Cl)cc2)=C(CN2CCN(c3ccc(C(=O)NS(=O)(=O)c4ccc(N[C@H](CCN5CCOCC5)CSc5ccccc5)c(S(=O)(=O)C(F)(F)F)c4)cc3)CC2)C1 [Navitoclax] (partner 0.5 µM)
Outline: as §1

**Q.** With UMC-11 as the cell line, how does the relative viability ([1]; first compound 0.04 µM) read?
**A.** 0.341

**Q.** And the relative viability ([1]; first compound 0.1265 µM)?
**A.** 0.339

**Q.** And the relative viability ([1]; first compound 0.4 µM)?
**A.** 0.347

**Q.** What about the relative viability ([1]; first compound 1.265 µM) of the same cell line?
**A.** 0.277

**Q.** What about the relative viability ([2]; first compound 0.04 µM) of the same cell line?
**A.** 0.2

**Q.** What about the relative viability ([2]; first compound 0.1265 µM) of the same cell line?
**A.** 0.203

**Q.** What about the relative viability ([2]; first compound 0.4 µM) of the same cell line?
**A.** 0.204

**Q.** And the relative viability ([2]; first compound 1.265 µM)?
**A.** 0.184

**Q.** And the relative viability ([3]; first compound 0.04 µM)?
**A.** 0.638

**Q.** And the relative viability ([3]; first compound 0.1265 µM)?
**A.** 0.45

**Q.** What about the relative viability ([3]; first compound 0.4 µM) of the same cell line?
**A.** 0.317

**Q.** And the relative viability ([3]; first compound 1.265 µM)?
**A.** 0.646

**Q.** And the relative viability (Motesanib + Navitoclax; first compound 0.01 µM)?
**A.** 0.341

**Q.** What about the relative viability (Motesanib + Navitoclax; first compound 0.03162 µM) of the same cell line?
**A.** 0.312

**Q.** What about the relative viability (Motesanib + Navitoclax; first compound 0.1 µM) of the same cell line?
**A.** 0.31

**Q.** What about the relative viability (Motesanib + Navitoclax; first compound 0.3162 µM) of the same cell line?
**A.** 0.302

**Q.** What about the relative viability (Motesanib + Navitoclax; first compound 1 µM) of the same cell line?
**A.** 0.318
